Assay results from patent US6984520B1, “Bioassay for thyroid stimulating antibodies” (University of Wales College of Medicine, priority 1997, dated 2006).

Key:
human TSH-R [1] = biological target: T1, human TSH-R (Homo sapiens, UniProt P16473); assay: luminescent bioassay: light output of lulu 1 cells (JP09 CHO cells expressing human TSH-R, transfected with cAMP-luciferase); type: cell-based; settings: concentration as in row: TSH 1 mU/ml, TSAb (90/672) 10 mlU/ml, Forskolin 10^-5M
T1 construct: a pSVL vector containing the coding region of human TSH-R; expressed in transfected cells; host or cells: CHO-K1 clone JP09 (pSVL-hTSHR), further transfected with cAMP-luciferase to give lulu 1 cells
T1 sequence (P16473 21-764): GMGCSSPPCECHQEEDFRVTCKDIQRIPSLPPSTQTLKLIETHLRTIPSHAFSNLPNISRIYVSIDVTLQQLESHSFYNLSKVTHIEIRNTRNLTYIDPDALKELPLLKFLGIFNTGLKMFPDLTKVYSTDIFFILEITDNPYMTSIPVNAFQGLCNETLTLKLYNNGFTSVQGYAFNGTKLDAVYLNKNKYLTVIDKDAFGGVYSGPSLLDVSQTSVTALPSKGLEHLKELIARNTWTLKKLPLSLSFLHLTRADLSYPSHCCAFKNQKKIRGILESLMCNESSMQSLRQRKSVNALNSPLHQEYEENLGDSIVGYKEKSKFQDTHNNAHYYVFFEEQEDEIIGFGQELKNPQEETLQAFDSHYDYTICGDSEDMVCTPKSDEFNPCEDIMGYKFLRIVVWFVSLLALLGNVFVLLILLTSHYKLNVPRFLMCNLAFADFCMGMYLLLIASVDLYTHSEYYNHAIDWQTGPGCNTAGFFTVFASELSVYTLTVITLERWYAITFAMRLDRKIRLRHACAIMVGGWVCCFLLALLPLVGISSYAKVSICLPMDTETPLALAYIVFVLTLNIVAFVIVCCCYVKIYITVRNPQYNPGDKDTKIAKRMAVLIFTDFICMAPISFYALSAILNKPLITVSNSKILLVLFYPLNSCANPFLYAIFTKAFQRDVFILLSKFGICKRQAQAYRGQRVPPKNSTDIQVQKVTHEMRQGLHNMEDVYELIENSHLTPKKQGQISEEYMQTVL
Description: Culture medium for the cells was RPMI; 10% foetal calf serum (FCS); 1% glutamine; 1% pyruvate; 2% penicillin/streptomycin (and 2.5 μg/ml puromycin, when amplifying cells for assay). 96 well plates were seeded with 5×10^4 cells prepared according to Example 1 and cultured overnight (approximately 16 hours) at 37° C. in a water-saturated incubator. They were then cultured for a second night in medium containing 10% charcoal stripped calf serum instead of FCS (available from Gibco). Basal light output was measured, in triplicate wells, in the presence of 100 μl of the medium containing 10% charcoal stripped serum. […] The final result was expressed as relative light units (RLU) obtained by the ratio of standard:basal or test:basal.
Following the incubation period, supernatants were removed from the wells and the cells are washed twice in phosphate buffered saline. Light output was measured using a commercially-available kit from the Promega Corporation, no. […]
The selected clones were cultured overnight in medium with 10% charcoal-stripped calf serum (Sigma) in place of FCS, followed by 4 hours' incubation with varying concentrations of bovine TSH. Light output was measured by luciferase reporter assay (Promega) in a Berthold luminometer. Results were calculated as the ratio of light output in the presence of TSH:light output in the absence of TSH and expressed as relative light units (RLUs). […]

human TSH-R [2] = biological target: T1, human TSH-R; assay: traditional bioassay: cAMP released into culture medium of lulu 1 cells, measured by RIA; type: cell-based; settings: NaCl-free Hank's medium, 2 mM IBMX, TSH 1 mU/ml, TSAb (90/672) 10 mlU/ml
Description: 44 of the GD sera described above, (35 TBII (TSH-R) positive) and the TSAb standard, were also assayed in a traditional bioassay in which CAMP released into the culture medium was measured by RIA. Lulu 1 were seeded in 96 well plates and the assay was performed in 100 μl/well NaCl-free Hank's medium, containing 2 mM IBMX and 10 μl individual GD or pooled euthyroid serum. CAMP was measured by the CAMP [^3H] assay system (Amersham) as described by Ludgate et al in Exp Clin Endo 100 73–4.

thyrotropin [TSH]
RLUs (mean luminometer readings (n=3) with background light emission subtracted) (human TSH-R [1]): 1293 RLUs
pmole cAMP (mean, n=2) (human TSH-R [2]): 9.4 pmol
